Experimental data from publication PMC4138103 (PLoS ONE, 2014).
Read-outs that look alike come from different tables or passages of the source.

Tested on: Sprague-Dawley rats
Assay: Hematology
Type: in vivo, Rattus norvegicus
Parameters: HCT, Hematocrit: unit not given here
Conditions: for Emax: Rattus norvegicus; for Basophils / Eosinophils / HB, Hemoglobin / HCT, Hematocrit / Lymphocytes / MCH, Mean corpuscular hemoglobin / MCHC, Mean corpuscular hemoglobin concentration / MCV, Mean corpuscular volume / MPV, Mean platelet volume / Monocytes / Neutrophils / PDW, Platelet distribution width / PLT, Platelet count / RBC, Red cell count / WBC, Leukocyte total count: group mean
Experimental: Basic blood picture analysis was carried out using Advia 120 analyzer (Bayer, later Siemens Diagnostic Division, Dublin, Ireland). This analysis includes red cell count (RBC), hemoglobin (HB), hematocrit (HCT), platelet count (PLT), leukocyte total count (WBC) and differential count as well as the calculated red cell and platelet parameters mean corpuscular volume (MCV), mean corpuscular hemoglobin (MCH), mean corpuscular hemoglobin concentration (MCHC), red cell distribution width - standard deviation (RDW-SD), platelet distribution width (PDW) and mean platelet volume (MPV). Blood cell counting is based on isovolumetric sphering and fixing the cells, stains and light scattering. Visual leukocyte differential counting was done after May-Grünwald-Giemsa staining.
Data were also analyzed using the BMD method, which is based on dose-response modeling of the full data set using a nested family of exponential and Hill models. The analyses were done on data of males and females combined, using sex as a covariate. […] In that case, different Critical Effect Doses (CEDs) and CEDs at the lowest bound of the confidence interval (CED-L) were generated for each sex. If no difference between sexes is detected, a CED and CED-Ls for the combined data is generated. However, this was also done if the curve fits are close, and separate analyses for males and females were then performed manually. CEDs and CED-Ls were calculated at the predefined Critical Effect Size (CES) of 5% (EFSA standard) or 10%.

[1] = F, CES 5%, model E2, adipose tissue concentration based
[2] = F, CES 5%, model E3, adipose tissue concentration based
[3] = F, CES 10%, model E2, adipose tissue concentration based
[4] = F, CES 10%, model E3, adipose tissue concentration based
[5] = M, CES 5%, model E4, adipose tissue concentration based
[6] = M, CES 10%, model E4, adipose tissue concentration based
[7] = females, total dose 3 mg/kg bw, N=5
[8] = females, total dose 10 mg/kg bw, N=5
[9] = females, total dose 30 mg/kg bw, N=5
[10] = females, total dose 100 mg/kg bw, N=5
[11] = females, total dose 300 mg/kg bw, N=5
[12] = females, total dose 1000 mg/kg bw, N=5
[13] = females, total dose 1000 mg/kg bw, N=5, p<0.01 vs. control
[14] = females, total dose 1700 mg/kg bw, N=5

Structure (SMILES): Clc1cc(Cl)c(-c2cc(Cl)c(Cl)c(Cl)c2Cl)cc1Cl [PCB 180, 2,2′,3′,4,4′,5,5′-heptachlorobiphenyl]
- CED, Hematocrit [1]: 5430 µg/g lipid
- CED, Hemoglobin [1]: 4840 µg/g lipid
- CED, Red blood cell count [1]: 4170 µg/g lipid
- CED-L, Hematocrit [1]: 4178 µg/g lipid
- CED-L, Hemoglobin [1]: 3889 µg/g lipid
- CED-L, Red blood cell count [1]: 3327 µg/g lipid
- CED, Red cell distribution width - SD [2]: 8370 µg/g lipid
- CED-L, Red cell distribution width - SD [2]: 5756 µg/g lipid
- CED, Hematocrit [3]: 11100 µg/g lipid
- CED, Hemoglobin [3]: 9930 µg/g lipid
- CED, Red blood cell count [3]: 8560 µg/g lipid
- CED-L, Hematocrit [3]: 8582 µg/g lipid
- CED-L, Hemoglobin [3]: 7989 µg/g lipid
- CED-L, Red blood cell count [3]: 6834 µg/g lipid
- CED, Red cell distribution width - SD [4]: 10700 µg/g lipid
- CED-L, Red cell distribution width - SD [4]: 9281 µg/g lipid
- CED, Hematocrit [5]: 601 µg/g lipid
- CED, Hemoglobin [5]: 872 µg/g lipid
- CED, Platelet count [5]: 156 µg/g lipid
- CED, Red blood cell count [5]: 598 µg/g lipid
- CED-L, Hematocrit [5]: 247 µg/g lipid
- CED-L, Hemoglobin [5]: 227 µg/g lipid
- CED-L, Platelet count [5]: 36.4 µg/g lipid
- CED-L, Red blood cell count [5]: 337 µg/g lipid
- CED, Hematocrit [6]: 2090 µg/g lipid
- CED, Platelet count [6]: 539 µg/g lipid
- CED, Red blood cell count [6]: 1890 µg/g lipid
- Emax (Erythrocyte, F, model E2, controls vs high dose according to the fitted model, read-out: Maximum response, Red blood cell count): -13%
- Emax (Erythrocyte, females, controls vs high dose, fitted model, read-out: Red blood cell count, Maximum response): -12.8%
- Emax (Erythrocyte, males, controls vs high dose, fitted model, read-out: Red blood cell count, Maximum response): -12.5%
- Emax (Erythrocyte, model E4, controls vs high dose according to the fitted model, read-out: Maximum response, Red blood cell count): -12.4%
- Emax (F, model E2, controls vs high dose according to the fitted model, read-out: Maximum response, Hematocrit): -10.1%
- Emax (F, model E2, controls vs high dose according to the fitted model, read-out: Maximum response, Hemoglobin): -11.3%
- Emax (F, model E3, controls vs high dose according to the fitted model, read-out: Maximum response, Red cell distribution width - SD): 11.1%
- Emax (Platelet, males, controls vs high dose, fitted model, read-out: Platelet count, Maximum response): 12%
- Emax (Platelet, model E4, controls vs high dose according to the fitted model, read-out: Maximum response, Platelet count): 12%
- Emax (females, controls vs high dose, fitted model, read-out: Hematocrit, Maximum response): -10%
- Emax (females, controls vs high dose, fitted model, read-out: Hemoglobin, Maximum response): -11.1%
- Emax (females, controls vs high dose, fitted model, read-out: Red cell distribution width - SD, Maximum response): 11.5%
- Emax (males, controls vs high dose, fitted model, read-out: Hematocrit, Maximum response): -11.8%
- Emax (males, controls vs high dose, fitted model, read-out: Hemoglobin, Maximum response): -8.6%
- Emax (model E4, controls vs high dose according to the fitted model, read-out: Maximum response, Hematocrit): -11.7%
- Emax (model E4, controls vs high dose according to the fitted model, read-out: Maximum response, Hemoglobin): -8.59%
- Basophils [7]: 0.0%
- Eosinophils [7]: 1.2%
- HB, Hemoglobin [7]: 165 g/L
- HCT, Hematocrit [7]: 0.44
- Lymphocytes [7]: 88.4%
- MCH, Mean corpuscular hemoglobin [7]: 23.1 pg
- MCHC, Mean corpuscular hemoglobin concentration [7]: 371 g/L
- MCV, Mean corpuscular volume [7]: 62.3 fL
- MPV, Mean platelet volume [7]: 6.74 fL
- Monocytes [7]: 2.6%
- Neutrophils [7]: 7.8%
- PDW, Platelet distribution width [7]: 7.26 fL
- PLT, Platelet count [7]: 8.17e+11 L⁻¹
- RBC, Red cell count [7]: 7.15e+12 L⁻¹
- WBC, Leukocyte total count [7]: 1.422e+10 L⁻¹
- Basophils [8]: 0.0%
- Eosinophils [8]: 0.2%
- HB, Hemoglobin [8]: 166 g/L
- HCT, Hematocrit [8]: 0.45
- Lymphocytes [8]: 92.0%
- MCH, Mean corpuscular hemoglobin [8]: 23.0 pg
- MCHC, Mean corpuscular hemoglobin concentration [8]: 372 g/L
- MCV, Mean corpuscular volume [8]: 61.8 fL
- MPV, Mean platelet volume [8]: 6.72 fL
- Monocytes [8]: 2%
- Neutrophils [8]: 5.8%
- PDW, Platelet distribution width [8]: 7.20 fL
- PLT, Platelet count [8]: 8.05e+11 L⁻¹
- RBC, Red cell count [8]: 7.23e+12 L⁻¹
- WBC, Leukocyte total count [8]: 1.276e+10 L⁻¹
- Basophils [9]: 0.0%
- Eosinophils [9]: 1.6%
- HB, Hemoglobin [9]: 165 g/L
- HCT, Hematocrit [9]: 0.45
- Lymphocytes [9]: 88.8%
- MCH, Mean corpuscular hemoglobin [9]: 22.9 pg
- MCHC, Mean corpuscular hemoglobin concentration [9]: 368 g/L
- MCV, Mean corpuscular volume [9]: 62.2 fL
- MPV, Mean platelet volume [9]: 6.74 fL
- Monocytes [9]: 1.4%
- Neutrophils [9]: 8.2%
- PDW, Platelet distribution width [9]: 7.32 fL
- PLT, Platelet count [9]: 8.47e+11 L⁻¹
- RBC, Red cell count [9]: 7.22e+12 L⁻¹
- WBC, Leukocyte total count [9]: 1.544e+10 L⁻¹
- Basophils [10]: 0.0%
- Eosinophils [10]: 0.8%
- HB, Hemoglobin [10]: 169 g/L
- HCT, Hematocrit [10]: 0.46
- Lymphocytes [10]: 90.8%
- MCH, Mean corpuscular hemoglobin [10]: 22.8 pg
- MCHC, Mean corpuscular hemoglobin concentration [10]: 370 g/L
- MCV, Mean corpuscular volume [10]: 61.6 fL
- MPV, Mean platelet volume [10]: 6.72 fL
- Monocytes [10]: 1.4%
- Neutrophils [10]: 7.0%
- PDW, Platelet distribution width [10]: 7.14 fL
- PLT, Platelet count [10]: 8.74e+11 L⁻¹
- RBC, Red cell count [10]: 7.4e+12 L⁻¹
- WBC, Leukocyte total count [10]: 1.654e+10 L⁻¹
- Basophils [11]: 0.0%
- Eosinophils [11]: 1.2%
- HB, Hemoglobin [11]: 166 g/L
- HCT, Hematocrit [11]: 0.45
- Lymphocytes [11]: 90.6%
- MCH, Mean corpuscular hemoglobin [11]: 23.1 pg
- MCHC, Mean corpuscular hemoglobin concentration [11]: 371 g/L
- MCV, Mean corpuscular volume [11]: 62.2 fL
- MPV, Mean platelet volume [11]: 6.98 fL
- Monocytes [11]: 2.2%
- Neutrophils [11]: 6.0%
- PDW, Platelet distribution width [11]: 7.58 fL
- PLT, Platelet count [11]: 8.2e+11 L⁻¹
- RBC, Red cell count [11]: 7.19e+12 L⁻¹
- WBC, Leukocyte total count [11]: 1.448e+10 L⁻¹
- Basophils [12]: 0.0%
- Eosinophils [12]: 1.2%
- Lymphocytes [12]: 89.8%
- MCH, Mean corpuscular hemoglobin [12]: 23.1 pg
- MCHC, Mean corpuscular hemoglobin concentration [12]: 366 g/L
- MCV, Mean corpuscular volume [12]: 63.2 fL
- MPV, Mean platelet volume [12]: 6.74 fL
- Monocytes [12]: 3.2%
- Neutrophils [12]: 5.8%
- PDW, Platelet distribution width [12]: 7.26 fL
- PLT, Platelet count [12]: 8.69e+11 L⁻¹
- WBC, Leukocyte total count [12]: 1.392e+10 L⁻¹
- HB, Hemoglobin [13]: 154 g/L
- RBC, Red cell count [13]: 6.66e+12 L⁻¹
- HCT, Hematocrit (females, total dose 1000 mg/kg bw, N=5, p<0.05 vs. control): 0.42
- Basophils [14]: 0.0%
- Eosinophils [14]: 1.0%
- Lymphocytes [14]: 87.6%
- MCH, Mean corpuscular hemoglobin [14]: 23.3 pg
- MCHC, Mean corpuscular hemoglobin concentration [14]: 366 g/L
- MCV, Mean corpuscular volume [14]: 63.7 fL
- MPV, Mean platelet volume [14]: 6.68 fL
- Monocytes [14]: 2.2%
- Neutrophils [14]: 9.2%
- PDW, Platelet distribution width [14]: 7.18 fL
- PLT, Platelet count [14]: 8.28e+11 L⁻¹
- WBC, Leukocyte total count [14]: 1.35e+10 L⁻¹
- HB, Hemoglobin (females, total dose 1700 mg/kg bw, N=5, p<0.001 vs. control): 150 g/L
